Measured values as given in patent publication US11013812B2, “Ice-based lipid nanoparticle formulation for delivery of mRNA” (Translate Bio, Inc., priority 2016, dated 2021).

Test: Percent mRNA encapsulation of lipid nanoparticle formulations (fluorescence-based detection of mRNA)
Type: physicochemical
Settings: LNP of cationic lipid:DOPE:DMG-PEG 2K (molar ratio 60:35:5); 5 mg mRNA LNP preparations
Excerpt: In some embodiments, one particular application of the novel lipid composition comprising a sterol-based cationic lipid, a helper lipid, and a PEG or PEG-modified lipid is pulmonary delivery of mRNA, such as CFTR mRNA.
In this process, the lipids dissolved in ethanol and the mRNA dissolved in citrate buffer were mixed using a pump system. […] The resultant formulation mixture was in citrate buffer containing 20% ethanol. The formulation was subjected to a buffer exchange and the resultant formulation was adjusted to the desired mRNA concentration and stored frozen until further use. Final concentration: 0.5 mg/mL CFTR mRNA (encapsulated). % mRNA Encapsulation: 90%. Size: 60 nm. PDI: 0.14.

## CCCCCCCCCCC(O)CN(CCN1CCN(CCN(CC(O)CCCCCCCCCC)CC(O)CCCCCCCCCC)CC1)CCN(CC(O)CCCCCCCCCC)CC(O)CCCCCCCCCC (centres unmarked) [C12-200]
  % mRNA encapsulation: 39%

## CCCCCCCC/C=C\CCCCCCCC(=O)OCC(CN(C)C)OC(=O)CCCCCCC/C=C\CCCCCCCC (centres unmarked) [DODAP, 1,2-dioleoyl-3-dimethylammonium-propane]
  % mRNA encapsulation: 49%

## CCCCCCCC/C=C\CCCCCCCCOCC(CN(C)C)OCCCCCCCC/C=C\CCCCCCCC (centres unmarked) [DODMA, 1,2-Dioleyloxy-3-dimethylaminopropane]
  % mRNA encapsulation: 51%

## CC(C)CCCC(C)C1CCC2C3CC=C4CC(OC(=O)CCc5cnc[nH]5)CCC4(C)C3CCC12C [ICE, (3S, 10R, 13R, 17R)-10, 13-dimethyl-17-((R)-6-methylheptan-2-yl)-2,3,4,7,8,9, 10, 11, 12, 13, 14, 15, 16, 17-tetradecahydro-1H-cyclopenta[a]phenanthren-3-yl 3-(1H-imidazol-4-yl)propanoate]
  % mRNA encapsulation: 90%

## CCCCCCCCCCC(O)CN(CCCC(C)C1OC(=O)C(C(C)CCCN(CC(O)CCCCCCCCCC)CC(O)CCCCCCCCCC)OC1=O)CC(O)CCCCCCCCC (centres unmarked) [Target 24, 3-(5-(bis(2-hydroxydodecyl)amino)pentan-2-yl)-6-(5-((2-hydroxydodecyl)(2-hydroxyundecyl)amino)pentan-2-yl)-1,4-dioxane-2,5-dione]
  % mRNA encapsulation: 59%
